Tested on: HEK293T cells expressing CD63-nanoLuc
Assay: EV secretion level after GSK-A1 (nanoLuc luminescence assay / nanoparticle tracking analysis)
Type: cell-based
Settings: addition of GSK-A1; control without GSK-A1 set as 1; nluc activity in culture supernatant or NTA
Description: A PI4KA inhibitor, GSK-A1, was administered to HEK293T cells expressing CD63-nanoLuc (pDB30), and the amount of secreted extracellular vesicles was measured by luminescence assay (Promega Corporation, Nanoglo luciferase assay system) that measures the nluc activity in a culture supernatant or by nanoparticle tracking analysis (NTA) using Nanosight (Malvern Panalytical Ltd.). As a control, the same experiment was performed without administering GSK-A1, and the EV secretion level at each GSK-A1 concentration was calculated by setting the EV secretion level of the control as 1.

Compound: COc1ncc(-c2ccc3nc(N)n(-c4ccc(N5CCOCC5)cc4)c3c2)cc1S(=O)(=O)Nc1ccccc1F [GSK-A1, 5-(2-amino-1-(4-morpholinophenyl)-1H-benzo[d]imidazol-6-yl)-N-(2-fluorophenyl)-2-methoxypyridine-3-sulfonamide]
- secretion level of a CD63 positive extracellular vesicle: increased
